# Counter-ions that a name gives are not always drawn.
# Assays:
# [1] = system: human pluripotent stem cell-derived cardiomyocytes (iCell Cardiomyocytes2); assay: Ca2+-fluorescence assay in hSC-derived cardiomyocytes (CTCM human), hazard scoring; type: cell-based; design: key to Hazard scoring, Color @ 0.1 μM / Hazard scoring, Color @ 0.2 μM / Hazard scoring, Color @ 0.5 μM / Hazard scoring, Color @ 1 μM / Hazard scoring, Color @ 2.5 μM / Hazard scoring, Color @ 5 μM / Hazard scoring, Color @ 0.3 μM / Hazard scoring, Color @ 3 μM / Hazard scoring, Color @ 10 μM: Green: No concern; Yellow: Low concern; Red: High concern; Black: Very high concern due to arrhythmic events
# Protocol: 7) Cardio-Electrophysiological Effects of the Testing Compounds in Synchronously Beating Human Pluripotent Stem Cell-Derived Cardiomyocytes (hSC-CMs) Using a Ca^2+-Fluorescence Assay (CTCM human)
# Compounds were tested in the 96-well plates.
# Compounds were tested at 0.1 μM, 0.2 μM, 0.5 μM, 1 μM, 2.5 μM and 5 μM (n=4 per dose) on Cor.4U®-Cardiomyocytes or on iCell® Cardiomyocytes2.
# Alternatively, compounds were tested at 0.1 μM, 0.3 μM; 1 μM, 3 μM, 10 μM and 30 μM (n=4 per dose) mostly on iCell® Cardiomyocytes2.
# Vehicle control: Dimethylsulfoxide (DMSO). The solutions of the compound in DMSO or its solvent (final concentration of 0.1% DMSO; n=8).
# Tested compounds were dissolved in DMSO at 1000-fold the intended concentrations. A compound “mother-plate” was made, containing the test compounds and positive and negative controls at 1000-fold the final concentrations. At the experiment day, these stock solutions were diluted with Tyrode (Sigma), supplemented with 10 mM HEPES (Gibco), to 2-fold the intended concentration (in round bottom compound plates). Final DMSO concentration in test solutions and vehicle control was 0.1%.
# hSC-CMs (Cor.4U® Cardiomyocytes) were obtained from CDI (Ncardia, Germany). Cells are pre-plated and seeded in fibronectin-coated 96-well plates at a density suited to form a monolayer and maintained in culture in a stage incubator (37° C., 5% CO2), according to the instructions of the cell provider.
# Second line hSC derived cardiomyocyte called iCell® Cardiomyocytes2 were purchased from FUJIFILM Cellular Dynamics (USA). The experiments with test drugs are carried out 5 to 7 days after plating the cells onto the plate to have a living, beating monolayer of hiPSC-derived cardiomyocytes. The beating monolayer in 96-well-plates are normally taken from 2 Vials of frozen iCell® Cardiomyocytes2 (≈5 million cells/vial), which will be plated onto three 96-well plates (≈50K/well).
# At least one hour before the start of the experiments the normal cell medium was replaced with Tyrode solution with Calcium dye (see below).
# Cal 520 dye (AAT Bioquest) was dissolved in 11 ml of Tyrode supplemented with 10 mM HEPES and warmed up to 37 C before adding to the cells.
# 35 μl cell culture medium was removed from each well and replaced with 35 μl of pre-warmed Cal 520 dye solution and cell plate was incubated for 45 min at 37° C./5% CO2. Cells were incubated for 5 min at 37° C.
# Spontaneous electrical activity is recorded, using Cal520™ (AAT Bioquest) calcium fluorescence-dye signaling. This dye integrates the total intracellular calcium activity over the whole well. A bottle of Cal520 dye (50 μg, MW: 1103/mol) is dissolved with 50 μl DMSO as a stock solution of 0.9 mM. 50 μL of the stock solution of the dye was added to 10 ml Tryodes solution to have dye concentration of 4.5 μM. Subsequently, 35 μl of this dye solution was added into each well, to have a final dye concentration of 1.58 μM. The current dye protocol on this CTCM human assay was established recently (Ivan Kopljar et al, Journal of Pharmacological and toxicological methods 2018. 91: 80-86; Lu et al., Tox Sci 2019. 170 (2): 345-356).
# Fluorescent signals (Ca^2+ transient morphology) were measured using the Functional Drug Screen System (FDSS/pCell; Hamamatsu, Japan) and the recordings were subsequently analyzed off-line, using appropriate software e.g. Notocord.
# The cell plate was loaded into the FDSS/pCell for a test run: Ca^2+ transients were measured for 4 minutes to check for synchronous beating of the cardiomyocytes in each well. All 96 wells were measured simultaneously (sampling interval: 0.06 s, short exposure time: 10 ms; excitation wavelength 480 nm; emission wavelength 540 nm; FDSS/pCell warmed to 37° C.).
# During the compound addition step, 100 μl of the respective double-concentrated test solutions was pipetted into each well simultaneously.
# Data were analyzed off-line using appropriate software e.g. Notocord-Hem (version 4.3). […]
# [2] = system: OCI-AML3 tumors (disseminated, IV); assay: Efficacy study in disseminated OCI-AML3 model (survival); type: in vivo, mouse; conditions: vehicle control 38.5 days
# Protocol: Doses were adjusted by individual body weight each day.
# Female SCID beige mice (CB17.Cg-PrkdcscidLystbg-J/Crl/−) were used when they were approximately 6 to 8 weeks of age and weighed approximately 25 g. All animals could acclimate and recover from any shipping-related stress for a minimum of 7 days prior to experimental use. Autoclaved water and irradiated food were provided ad libitum, and the animals were maintained on a 12 hour light and dark cycle. Cages, bedding, and water bottles were autoclaved before use and changed weekly. The tissue culture and cell injection reagents are summarized below in Table 14.
# Human AML cell line OCI-AML3 was cultured at 37° C., 5% CO2 in the indicated complete culture media (MEM Alpha+20% HI—FBS (Heat-Inactivated Fetal Bovine Serum)+2 mM L-glutamine+50 ug/ml Gentamycin). […]
# Animals were monitored daily for clinical signs related to either compound toxicity or tumor burden (i.e., hind limb paralysis, lethargy, etc.).
# Median survival was determined utilizing Kaplan-Meier survival analysis. […]
# Statistical significance for body weights was evaluated as described above. Statistical significance was evaluated for Kaplan-Meier survival plots comparing therapeutic treatment group vs. appropriate vehicle-treated control using log-rank (Mantel-Cox) test in R software version 3.4.2. […]
# MOLM-14 cells = assay: Proliferation assay (spheroid, day 8 confluence), MOLM-14; type: cell-based; conditions: Homo sapiens, 8 days, read-out: spheroid assay_OneTime MOLM-14 IC50
# KO-52 cells = assay: Proliferation assay (spheroid, day 8 confluence), KO-52 control cell line; type: cell-based; conditions: Homo sapiens; 8 days; read-out: spheroid assay_OneTime KO-52 IC50
# Protocol: The anti-proliferative effect of menin/MLL protein/protein interaction inhibitor test compounds was assessed in human leukemia cell lines. The cell line MOLM-14 harbors a MLL translocation and expresses the MLL fusion protein MLL-AF9, respectively, as well as the wildtype protein from the second allele. OCI-AML3 cells that carry the NPM1c gene mutation were also tested. […] KO-52 was used as a control cell line containing two MLL (KMT2A) wildtype alleles in order to exclude compounds that display general cytotoxic effects.
# KO-52 and OCI-AML3 cell lines were propagated in alpha-MEM (Sigma Aldrich) supplemented with 20% heat-inactivated fetal bovine serum (HyClone), 2 mM L-glutamine (Sigma Aldrich) and 50 μg/ml gentamycin (Gibco).
# In order to assess the anti-proliferative effects, 200 MOLM-14 cells, 200 OCI-AML3 cells or 300 KO-52 cells were seeded in 200 μl media per well in 96-well round bottom, ultra-low attachment plates (Costar, catalogue number 7007). […] Spheroid like growth was measured in real-time by live-cell imaging (IncuCyteZOOM, Essenbio, 4× objective) acquiring images at day 8. Confluence (%) as a measure of spheroid size was determined using an integrated analysis tool.
# In order to determine the effect of the test compounds over time, the confluence in each well as a measure of spheroid size, was calculated. […]
# [3] = Stability experiments under stress conditions (UHPLC purity, XRD); type: physicochemical; conditions: for XRD after stress: Reference Crystalline, form A
# [4] = iCell Cardiomyocytes2, 30 min incubation
# [5] = efficacious dose in mouse xenograft models of 30 mpk, (mouse, human)
smiles,measurement,setting,value
"CCN(C(=O)c1cc(F)ccc1Oc1nncnc1N1CCC2(C1)CN([C@H](CCCN(C)CCOC)C(C)C)C2)C(C)C [Compound A1, (R)—N-ethyl-5-fluoro-N-isopropyl-2-((5-(2-(6-((2-methoxyethyl)(methyl)-amino)-2-methylhexan-3-yl)-2,6-diazaspiro[3.4]octan-6-yl)-1,2,4-triazin-6-yl)oxy)-benzanilide 0.2 HCl·x H2O (x=2-3)]","Hazard scoring, Color @ 0.1 μM",[1]; [4],Green
same,"Hazard scoring, Color @ 0.3 μM","[1]; 0.3 μM, iCell Cardiomyocytes2, 30 min incubation",Green
same,"Hazard scoring, Color @ 1 μM",[1]; [4],Green
same,"Hazard scoring, Color @ 3 μM","[1]; 3 μM, iCell Cardiomyocytes2, 30 min incubation",Green
same,"Hazard scoring, Color @ 10 μM","[1]; 10 μM, iCell Cardiomyocytes2, 30 min incubation",Green
same,"Hazard scoring, Color @ 30 μM","[1]; 30 μM, iCell Cardiomyocytes2, 30 min incubation",yellow
same,Margin CTCM human 10 μM vs free Cmax,[1]; [5],> 16
same,Margin CTCM human 30 μM vs free Cmax,[1]; [5],> 45
"CCN(C(=O)c1cc(F)ccc1Oc1nncnc1N1CCC2(C1)CN([C@H](CCCN(C)CCOC)C(C)C)C2)C(C)C [Compound A3, (R)—N-ethyl-5-fluoro-N-isopropyl-2-((5-(2-(6-((2-methoxyethyl) (methyl)amino)-2-methylhexan-3-yl)-2,6-diazaspiro[3.4]octan-6-yl)-1,2,4-triazin-6-yl)oxy) benzamide oxalate]","Hazard scoring, Color @ 0.1 μM",[1]; [4],Green
same,"Hazard scoring, Color @ 0.2 μM","[1]; 0.2 μM, iCell Cardiomyocytes2, 30 min incubation",Green
same,"Hazard scoring, Color @ 0.5 μM","[1]; 0.5 μM, iCell Cardiomyocytes2, 30 min incubation",Green
same,"Hazard scoring, Color @ 1 μM",[1]; [4],Green
same,"Hazard scoring, Color @ 2.5 μM","[1]; 2.5 μM, iCell Cardiomyocytes2, 30 min incubation",Green
same,"Hazard scoring, Color @ 5 μM","[1]; 5 μM, iCell Cardiomyocytes2, 30 min incubation",Green
same,median days of survival,[2]; 30 mg/kg PO daily for 28 days,75.5 days
same,median days of survival,[2]; 50 mg/kg PO daily for 28 days,58.5 days
"CCN(C(=O)c1cc(F)ccc1Oc1nncnc1N1CCC2(C1)CN([C@H](CCCN(C)CCOC)C(C)C)C2)C(C)C [Compound A4, (R)—N-ethyl-5-fluoro-N-isopropyl-2-((5-(2-(6-((2-methoxyethyl)(methyl)amino)-2-methylhexan-3-yl)-2,6-diazaspiro[3.4]octan-6-yl)-1,2,4-triazin-6-yl)oxy)benzamide bis-besylate salt hydrate]",IC50,MOLM-14 cells,8 nM
same,IC50,KO-52 cells,5440 nM
same,Besylate salt Purity after stress,"[3]; 50° C./10% RH, 7 days, Reference 99.65",99.64
same,Besylate salt Purity after stress,"[3]; 50° C./10% RH, 14 days, Reference 99.65",99.62
same,Besylate salt Purity after stress,"[3]; 50° C./30% RH, 21 days, Reference 99.21",99.32
same,XRD after stress,"[3]; 50° C./30% RH, 21 days",Complies to ref
same,Besylate salt Purity after stress,"[3]; 50° C./50% RH, 7 days, Reference 99.65",99.65
same,Besylate salt Purity after stress,"[3]; 50° C./50% RH, 14 days, Reference 99.65",99.66
same,Besylate salt Purity after stress,"[3]; 50° C./75% RH, 21 days, Reference 99.21",99.36
same,XRD after stress,"[3]; 50° C./75% RH, 21 days",Complies to ref
same,"chemical and physical stability (UHPLC, XRD)",[3]; under evaluated stress conditions,chemically and physically stable
